# Assay results from paper PMC8333425, “Discovery of a dual Ras and ARF6 inhibitor from a GPCR endocytosis screen” (Nature Communications, 2021).
# How the values were obtained:
# Experiment in all cases: KINOMEscan kinase binding assay
# [1] = molecular target: T1, 384 kinases from the human genome (Homo sapiens, UniProt Q06187); conditions: kinase BTK (Entrez BTK)
# T1 construct: purchased Eurofin/DiscoverX
# Outline: (§1)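 Competition binding (KINOMEscan) across 384 human kinases with compound at 10 µM. Ligand binding was expressed relative to DMSO (100%) as the average of duplicates from one experiment. S(10) selectivity score was derived.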
# [2] = molecular target: T2, 384 kinases from the human genome (Homo sapiens, UniProt Q9NYY3); conditions: kinase PLK2 (Entrez PLK2)
# T2 construct: purchased Eurofin/DiscoverX
# Outline: as §1
# [3] = molecular target: T3, 384 kinases from the human genome (Homo sapiens, UniProt P30530); conditions: kinase AXL (Entrez AXL)
# T3 construct: purchased Eurofin/DiscoverX
# Outline: as §1
# [4] = molecular target: T4, 384 kinases from the human genome (Homo sapiens, UniProt P43405); conditions: kinase SYK (Entrez SYK)
# T4 construct: purchased Eurofin/DiscoverX
# Outline: as §1
# [5] = molecular target: T5, 384 kinases from the human genome (Homo sapiens, UniProt Q9UIK4); conditions: kinase DAPK2 (Entrez DAPK2)
# T5 construct: purchased Eurofin/DiscoverX
# Outline: as §1
# [6] = molecular target: T6, 384 kinases from the human genome (Homo sapiens, UniProt Q13131); conditions: kinase AMPK-alpha1 (Entrez PRKAA1)
# T6 construct: purchased Eurofin/DiscoverX
# Outline: as §1
# [7] = molecular target: T7, 384 kinases from the human genome (Homo sapiens, UniProt Q13546); conditions: kinase RIPK1 (Entrez RIPK1)
# T7 construct: purchased Eurofin/DiscoverX
# Outline: as §1
# [8] = molecular target: T8, 384 kinases from the human genome (Homo sapiens, UniProt Q02750); conditions: kinase MEK1 (Entrez MAP2K1)
# T8 construct: purchased Eurofin/DiscoverX
# Outline: as §1
# [9] = molecular target: T9, 384 kinases from the human genome (Homo sapiens, UniProt P51617); conditions: kinase IRAK1 (Entrez IRAK1)
# T9 construct: purchased Eurofin/DiscoverX
# Outline: as §1
# [10] = molecular target: T10, 384 kinases from the human genome (Homo sapiens, UniProt Q00536); conditions: kinase PCTK1 (Entrez CDK16)
# T10 construct: purchased Eurofin/DiscoverX
# Outline: as §1
# [11] = molecular target: T11, 384 kinases from the human genome (Homo sapiens, UniProt P54764); conditions: kinase EPHA4 (Entrez EPHA4)
# T11 construct: purchased Eurofin/DiscoverX
# Outline: as §1
# [12] = molecular target: T12, 384 kinases from the human genome (Homo sapiens, UniProt Q13882); conditions: kinase BRK (Entrez PTK6)
# T12 construct: purchased Eurofin/DiscoverX
# Outline: as §1
# [13] = molecular target: T13, 384 kinases from the human genome (Homo sapiens, UniProt Q8IYT8); conditions: kinase ULK2 (Entrez ULK2)
# T13 construct: purchased Eurofin/DiscoverX
# Outline: as §1
# [14] = molecular target: T14, 384 kinases from the human genome (Homo sapiens, UniProt P27361); conditions: kinase ERK1 (Entrez MAPK3)
# T14 construct: purchased Eurofin/DiscoverX
# Outline: as §1
# [15] = molecular target: T15, 384 kinases from the human genome (Homo sapiens, UniProt P27037); conditions: kinase ACVR2A (Entrez ACVR2A)
# T15 construct: purchased Eurofin/DiscoverX
# Outline: as §1
# [16] = molecular target: T16, 384 kinases from the human genome (Homo sapiens, UniProt Q00535); conditions: kinase CDK5 (Entrez CDK5)
# T16 construct: purchased Eurofin/DiscoverX
# Outline: as §1
# [17] = molecular target: T17, 384 kinases from the human genome (Homo sapiens, UniProt P08069); conditions: kinase IGF1R (Entrez IGF1R)
# T17 construct: purchased Eurofin/DiscoverX
# Outline: as §1
# [18] = molecular target: T18, 384 kinases from the human genome (Homo sapiens, UniProt Q9UF33); conditions: kinase EPHA6 (Entrez EPHA6)
# T18 construct: purchased Eurofin/DiscoverX
# Outline: as §1
# [19] = molecular target: T19, 384 kinases from the human genome (Homo sapiens, UniProt P17948); conditions: kinase FLT1 (Entrez FLT1)
# T19 construct: purchased Eurofin/DiscoverX
# Outline: as §1
# [20] = molecular target: T20, 384 kinases from the human genome (Homo sapiens, UniProt P51957); conditions: kinase NEK4 (Entrez NEK4)
# T20 construct: purchased Eurofin/DiscoverX
# Outline: as §1
# [21] = molecular target: T21, 384 kinases from the human genome (Homo sapiens, UniProt Q8TDR2); conditions: kinase STK35 (Entrez STK35)
# T21 construct: purchased Eurofin/DiscoverX
# Outline: as §1
# [22] = molecular target: T22, 384 kinases from the human genome (Homo sapiens, UniProt Q9P0L2); conditions: kinase MARK1 (Entrez MARK1)
# T22 construct: purchased Eurofin/DiscoverX
# Outline: as §1
# [23] = molecular target: T23, 384 kinases from the human genome (Homo sapiens, UniProt P14616); conditions: kinase INSRR (Entrez INSRR)
# T23 construct: purchased Eurofin/DiscoverX
# Outline: as §1
# [24] = molecular target: T24, 384 kinases from the human genome (Homo sapiens, UniProt Q6ZN16); conditions: kinase MAP3K15 (Entrez MAP3K15)
# T24 construct: purchased Eurofin/DiscoverX
# Outline: as §1
# [25] = molecular target: T25, 384 kinases from the human genome (Homo sapiens, UniProt P22455); conditions: kinase FGFR4 (Entrez FGFR4)
# T25 construct: purchased Eurofin/DiscoverX
# Outline: as §1
# [26] = molecular target: T26, 384 kinases from the human genome (Homo sapiens, UniProt Q8N752); conditions: kinase CSNK1A1L (Entrez CSNK1A1L)
# T26 construct: purchased Eurofin/DiscoverX
# Outline: as §1
# T14 sequence (P27361 whole entry): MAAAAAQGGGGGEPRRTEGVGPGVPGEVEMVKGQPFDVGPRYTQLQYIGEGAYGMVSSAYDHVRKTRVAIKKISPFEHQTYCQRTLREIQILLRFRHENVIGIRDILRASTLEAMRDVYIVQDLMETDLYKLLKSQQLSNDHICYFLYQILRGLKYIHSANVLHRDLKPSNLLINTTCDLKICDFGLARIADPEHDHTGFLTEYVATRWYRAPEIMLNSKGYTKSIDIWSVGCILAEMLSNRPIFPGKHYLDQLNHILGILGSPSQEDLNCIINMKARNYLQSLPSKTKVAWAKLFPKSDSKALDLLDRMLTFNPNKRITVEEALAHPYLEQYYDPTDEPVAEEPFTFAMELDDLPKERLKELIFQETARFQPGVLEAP
# T13 sequence (Q8IYT8 whole entry): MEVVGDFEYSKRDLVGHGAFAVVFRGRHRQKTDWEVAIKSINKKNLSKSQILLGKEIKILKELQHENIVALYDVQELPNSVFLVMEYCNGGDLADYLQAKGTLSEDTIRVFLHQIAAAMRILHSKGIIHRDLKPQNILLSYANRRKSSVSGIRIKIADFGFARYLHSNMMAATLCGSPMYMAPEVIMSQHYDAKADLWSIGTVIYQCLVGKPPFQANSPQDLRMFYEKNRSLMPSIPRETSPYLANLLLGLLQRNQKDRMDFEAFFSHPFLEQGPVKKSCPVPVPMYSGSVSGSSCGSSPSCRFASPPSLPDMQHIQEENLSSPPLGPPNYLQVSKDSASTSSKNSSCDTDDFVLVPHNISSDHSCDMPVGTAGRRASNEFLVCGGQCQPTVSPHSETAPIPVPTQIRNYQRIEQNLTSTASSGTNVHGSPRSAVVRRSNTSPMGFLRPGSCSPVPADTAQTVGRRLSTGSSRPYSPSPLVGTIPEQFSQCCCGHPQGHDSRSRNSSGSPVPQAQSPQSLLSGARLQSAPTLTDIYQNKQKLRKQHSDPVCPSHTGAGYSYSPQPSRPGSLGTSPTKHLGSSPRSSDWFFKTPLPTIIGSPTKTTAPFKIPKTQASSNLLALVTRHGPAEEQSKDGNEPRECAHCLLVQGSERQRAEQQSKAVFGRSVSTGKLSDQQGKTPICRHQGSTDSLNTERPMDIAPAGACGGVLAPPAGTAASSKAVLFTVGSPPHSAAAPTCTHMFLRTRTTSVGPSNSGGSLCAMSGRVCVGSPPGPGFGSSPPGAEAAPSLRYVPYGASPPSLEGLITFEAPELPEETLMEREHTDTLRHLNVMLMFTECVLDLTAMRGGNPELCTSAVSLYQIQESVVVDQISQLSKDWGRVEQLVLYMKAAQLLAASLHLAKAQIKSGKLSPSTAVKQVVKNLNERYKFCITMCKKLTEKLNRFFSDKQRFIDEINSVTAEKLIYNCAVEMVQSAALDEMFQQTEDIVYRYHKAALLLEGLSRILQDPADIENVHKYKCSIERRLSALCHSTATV
# T26 sequence (Q8N752 whole entry): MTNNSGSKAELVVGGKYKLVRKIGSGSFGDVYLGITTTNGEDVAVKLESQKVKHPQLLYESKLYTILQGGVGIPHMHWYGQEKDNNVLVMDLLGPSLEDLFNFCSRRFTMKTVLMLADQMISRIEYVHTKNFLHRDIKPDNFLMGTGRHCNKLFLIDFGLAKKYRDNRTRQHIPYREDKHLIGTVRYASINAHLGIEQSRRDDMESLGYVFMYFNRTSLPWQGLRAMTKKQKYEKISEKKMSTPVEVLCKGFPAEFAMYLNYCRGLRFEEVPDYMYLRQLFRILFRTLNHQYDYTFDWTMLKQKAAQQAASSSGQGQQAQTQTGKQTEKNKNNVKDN
# T12 sequence (Q13882 whole entry): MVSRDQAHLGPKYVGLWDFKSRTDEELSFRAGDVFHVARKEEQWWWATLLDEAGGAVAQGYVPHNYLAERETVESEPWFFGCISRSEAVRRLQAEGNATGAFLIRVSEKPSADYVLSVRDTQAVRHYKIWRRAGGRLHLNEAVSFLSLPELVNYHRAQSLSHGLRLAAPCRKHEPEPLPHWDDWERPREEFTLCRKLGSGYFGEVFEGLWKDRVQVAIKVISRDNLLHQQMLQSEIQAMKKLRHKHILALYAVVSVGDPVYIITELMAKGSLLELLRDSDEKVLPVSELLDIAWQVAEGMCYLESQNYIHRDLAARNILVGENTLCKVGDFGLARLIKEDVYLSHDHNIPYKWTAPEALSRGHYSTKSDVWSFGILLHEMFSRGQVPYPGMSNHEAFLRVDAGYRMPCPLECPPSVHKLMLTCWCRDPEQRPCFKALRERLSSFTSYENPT
# T8 sequence (Q02750 whole entry): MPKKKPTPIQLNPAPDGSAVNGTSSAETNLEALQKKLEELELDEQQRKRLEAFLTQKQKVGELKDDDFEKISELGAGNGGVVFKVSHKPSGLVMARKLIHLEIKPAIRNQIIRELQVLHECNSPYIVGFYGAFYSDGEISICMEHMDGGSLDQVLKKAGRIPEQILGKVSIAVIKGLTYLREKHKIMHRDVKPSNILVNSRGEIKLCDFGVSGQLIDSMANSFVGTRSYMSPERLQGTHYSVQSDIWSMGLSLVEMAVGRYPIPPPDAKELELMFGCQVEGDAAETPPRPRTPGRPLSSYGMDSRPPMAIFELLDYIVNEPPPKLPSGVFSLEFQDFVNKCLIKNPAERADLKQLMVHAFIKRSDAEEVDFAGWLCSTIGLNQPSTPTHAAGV
# T10 sequence (Q00536 whole entry): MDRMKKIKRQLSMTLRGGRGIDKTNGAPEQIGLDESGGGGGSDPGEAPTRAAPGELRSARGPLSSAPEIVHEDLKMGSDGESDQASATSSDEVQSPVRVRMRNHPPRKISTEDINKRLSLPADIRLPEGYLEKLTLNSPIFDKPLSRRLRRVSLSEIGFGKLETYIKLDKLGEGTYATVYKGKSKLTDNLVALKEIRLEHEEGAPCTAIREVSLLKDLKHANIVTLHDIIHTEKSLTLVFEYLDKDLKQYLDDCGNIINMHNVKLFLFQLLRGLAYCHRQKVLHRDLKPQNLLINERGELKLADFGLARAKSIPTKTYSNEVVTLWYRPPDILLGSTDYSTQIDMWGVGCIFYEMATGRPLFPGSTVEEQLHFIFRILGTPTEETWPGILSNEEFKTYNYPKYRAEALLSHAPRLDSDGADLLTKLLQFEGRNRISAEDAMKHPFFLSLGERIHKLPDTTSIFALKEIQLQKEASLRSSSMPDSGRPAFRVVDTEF
# T5 sequence (Q9UIK4 whole entry): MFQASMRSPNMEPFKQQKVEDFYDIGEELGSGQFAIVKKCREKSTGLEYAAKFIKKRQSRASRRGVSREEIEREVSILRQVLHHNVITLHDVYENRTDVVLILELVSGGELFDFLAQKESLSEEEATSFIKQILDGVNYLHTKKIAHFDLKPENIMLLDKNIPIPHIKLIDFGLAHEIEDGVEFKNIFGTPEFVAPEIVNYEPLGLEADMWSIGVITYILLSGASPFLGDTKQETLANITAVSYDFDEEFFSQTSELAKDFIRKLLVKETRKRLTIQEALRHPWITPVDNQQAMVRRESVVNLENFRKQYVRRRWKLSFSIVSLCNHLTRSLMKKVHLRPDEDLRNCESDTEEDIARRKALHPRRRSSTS
# T3 sequence (P30530 26-894): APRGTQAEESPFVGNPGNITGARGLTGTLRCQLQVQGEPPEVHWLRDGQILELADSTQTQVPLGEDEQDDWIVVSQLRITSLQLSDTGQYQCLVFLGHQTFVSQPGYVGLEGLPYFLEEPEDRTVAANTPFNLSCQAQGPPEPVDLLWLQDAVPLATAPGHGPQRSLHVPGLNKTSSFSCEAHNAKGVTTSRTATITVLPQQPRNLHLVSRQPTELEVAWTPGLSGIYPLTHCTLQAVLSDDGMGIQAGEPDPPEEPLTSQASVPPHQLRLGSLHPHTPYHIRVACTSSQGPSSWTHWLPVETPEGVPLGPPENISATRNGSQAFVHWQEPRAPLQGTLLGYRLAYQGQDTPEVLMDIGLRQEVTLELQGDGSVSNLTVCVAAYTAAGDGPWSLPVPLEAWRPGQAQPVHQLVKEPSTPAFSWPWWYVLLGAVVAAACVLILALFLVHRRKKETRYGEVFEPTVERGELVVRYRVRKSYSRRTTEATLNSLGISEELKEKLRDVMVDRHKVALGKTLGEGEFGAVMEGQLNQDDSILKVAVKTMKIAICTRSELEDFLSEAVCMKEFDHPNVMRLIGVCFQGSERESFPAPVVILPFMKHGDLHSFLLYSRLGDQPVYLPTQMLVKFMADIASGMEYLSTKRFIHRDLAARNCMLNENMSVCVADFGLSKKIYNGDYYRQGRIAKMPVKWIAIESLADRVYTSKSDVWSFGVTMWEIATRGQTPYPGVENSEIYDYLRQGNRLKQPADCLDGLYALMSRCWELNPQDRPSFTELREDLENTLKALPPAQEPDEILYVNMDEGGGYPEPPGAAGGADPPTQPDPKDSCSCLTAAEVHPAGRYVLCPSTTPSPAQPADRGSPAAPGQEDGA
# T15 sequence (P27037 20-513): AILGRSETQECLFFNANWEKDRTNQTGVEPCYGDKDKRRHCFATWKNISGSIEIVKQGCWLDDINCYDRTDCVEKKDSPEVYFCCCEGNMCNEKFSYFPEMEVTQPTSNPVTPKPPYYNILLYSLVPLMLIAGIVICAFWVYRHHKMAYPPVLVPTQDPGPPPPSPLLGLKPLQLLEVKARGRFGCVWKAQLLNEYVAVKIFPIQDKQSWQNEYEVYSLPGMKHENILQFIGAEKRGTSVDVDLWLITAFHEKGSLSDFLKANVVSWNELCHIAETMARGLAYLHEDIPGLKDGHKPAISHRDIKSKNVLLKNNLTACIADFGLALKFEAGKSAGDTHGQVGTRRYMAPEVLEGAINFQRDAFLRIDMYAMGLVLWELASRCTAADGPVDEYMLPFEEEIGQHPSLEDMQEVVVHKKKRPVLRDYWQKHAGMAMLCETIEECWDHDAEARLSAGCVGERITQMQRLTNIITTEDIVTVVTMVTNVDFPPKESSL
smiles,measurement,setting,value
CC(C)C(=O)N1CCN(c2ccc(NC(=O)c3cc4ccccc4o3)cc2Cl)CC1 [Compound 21],Percent Control,[1],94%
same,Percent Control,[2],90%
same,Percent Control,[3],69%
same,Percent Control,[4],98%
same,Percent Control,[5],100%
same,Percent Control,[6],99%
same,Percent Control,[7],76%
same,Percent Control,[8],76%
same,Percent Control,[9],99%
same,Percent Control,[10],96%
same,Percent Control,[11],95%
same,Percent Control,[12],88%
same,Percent Control,[13],95%
same,Percent Control,[14],93%
same,Percent Control,[15],100%
same,Percent Control,[16],94%
same,Percent Control,[17],76%
same,Percent Control,[18],75%
same,Percent Control,[19],87%
same,Percent Control,[20],98%
same,Percent Control,[21],100%
same,Percent Control,[22],93%
same,Percent Control,[23],97%
same,Percent Control,[24],100%
same,Percent Control,[25],91%
same,Percent Control,[26],98%
